Key:
WAPAL C160 (Q7Z5K2) = WAPAL C160 (Q7Z5K2) (Homo sapiens, UniProt Q7Z5K2); experiment: Competitive isoTOP-ABPP in situ; type: cell-based; conditions: fragment 2 at 200 μM, MDA-MB-231 cells
KDM4B C694 (O94953) = molecular target: T1, KDM4B C694 (O94953) (Homo sapiens, UniProt O94953); experiment: Competitive isoTOP-ABPP in situ; type: cell-based; conditions: fragment 2 at 200 μM, MDA-MB-231 cells
T1 sequence (O94953 1-1096): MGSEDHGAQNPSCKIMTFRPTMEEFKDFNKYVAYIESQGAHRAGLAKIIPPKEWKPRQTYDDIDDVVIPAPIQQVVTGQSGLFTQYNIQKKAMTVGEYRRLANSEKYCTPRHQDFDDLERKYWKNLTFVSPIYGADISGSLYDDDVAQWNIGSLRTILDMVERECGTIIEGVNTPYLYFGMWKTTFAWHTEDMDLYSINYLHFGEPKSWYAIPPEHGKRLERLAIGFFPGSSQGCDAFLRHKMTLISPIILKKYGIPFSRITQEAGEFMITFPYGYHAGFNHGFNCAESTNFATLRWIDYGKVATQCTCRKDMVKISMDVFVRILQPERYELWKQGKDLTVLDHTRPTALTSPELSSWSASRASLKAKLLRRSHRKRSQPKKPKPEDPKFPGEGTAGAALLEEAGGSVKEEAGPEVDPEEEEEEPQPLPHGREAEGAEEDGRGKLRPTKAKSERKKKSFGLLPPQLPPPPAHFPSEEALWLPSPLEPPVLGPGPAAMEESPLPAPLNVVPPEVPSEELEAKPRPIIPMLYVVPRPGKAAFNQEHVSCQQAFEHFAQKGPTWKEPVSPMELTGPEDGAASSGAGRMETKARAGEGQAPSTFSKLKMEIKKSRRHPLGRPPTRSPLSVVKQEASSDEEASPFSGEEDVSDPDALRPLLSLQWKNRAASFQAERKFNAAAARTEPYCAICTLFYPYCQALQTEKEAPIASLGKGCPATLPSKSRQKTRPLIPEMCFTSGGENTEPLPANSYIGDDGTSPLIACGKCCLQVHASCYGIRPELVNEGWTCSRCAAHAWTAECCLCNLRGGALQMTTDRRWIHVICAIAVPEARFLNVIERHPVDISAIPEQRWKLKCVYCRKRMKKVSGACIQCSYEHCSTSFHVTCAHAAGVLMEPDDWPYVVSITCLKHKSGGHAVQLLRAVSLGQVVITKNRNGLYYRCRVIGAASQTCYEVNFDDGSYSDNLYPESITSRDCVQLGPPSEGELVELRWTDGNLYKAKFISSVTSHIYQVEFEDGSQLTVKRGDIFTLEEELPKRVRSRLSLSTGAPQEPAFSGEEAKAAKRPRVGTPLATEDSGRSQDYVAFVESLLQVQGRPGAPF

RRAGC C377 (Q9HB90) = RRAGC C377 (Q9HB90) (Homo sapiens, UniProt Q9HB90); experiment: Competitive isoTOP-ABPP in situ; type: cell-based; conditions: fragment 2 at 200 μM, MDA-MB-231 cells
O00541_C272 = O00541_C272 (Homo sapiens, UniProt O00541); experiment: Competitive isoTOP-ABPP, cell lysates; type: binding; conditions: 500 μm, in-vitro_ramos
Chain of O00541_C272 (O00541 whole entry, looked up): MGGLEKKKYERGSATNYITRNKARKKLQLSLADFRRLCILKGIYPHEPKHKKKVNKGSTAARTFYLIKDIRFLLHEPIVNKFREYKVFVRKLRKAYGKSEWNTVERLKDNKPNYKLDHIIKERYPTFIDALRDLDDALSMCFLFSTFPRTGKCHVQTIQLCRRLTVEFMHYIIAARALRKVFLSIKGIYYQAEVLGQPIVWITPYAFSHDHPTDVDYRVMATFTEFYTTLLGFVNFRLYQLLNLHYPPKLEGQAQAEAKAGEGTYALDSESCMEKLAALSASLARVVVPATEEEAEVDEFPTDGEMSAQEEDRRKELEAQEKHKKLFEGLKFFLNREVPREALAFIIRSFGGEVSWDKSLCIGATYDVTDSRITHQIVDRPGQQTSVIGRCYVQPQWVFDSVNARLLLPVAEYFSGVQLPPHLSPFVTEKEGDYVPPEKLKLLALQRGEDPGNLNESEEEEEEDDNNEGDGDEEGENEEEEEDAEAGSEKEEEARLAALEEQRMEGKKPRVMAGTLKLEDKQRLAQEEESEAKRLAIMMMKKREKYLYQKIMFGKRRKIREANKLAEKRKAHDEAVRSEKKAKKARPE

Chain of RRAGC C377 (Q9HB90) (Q9HB90 2-399 limits assumed): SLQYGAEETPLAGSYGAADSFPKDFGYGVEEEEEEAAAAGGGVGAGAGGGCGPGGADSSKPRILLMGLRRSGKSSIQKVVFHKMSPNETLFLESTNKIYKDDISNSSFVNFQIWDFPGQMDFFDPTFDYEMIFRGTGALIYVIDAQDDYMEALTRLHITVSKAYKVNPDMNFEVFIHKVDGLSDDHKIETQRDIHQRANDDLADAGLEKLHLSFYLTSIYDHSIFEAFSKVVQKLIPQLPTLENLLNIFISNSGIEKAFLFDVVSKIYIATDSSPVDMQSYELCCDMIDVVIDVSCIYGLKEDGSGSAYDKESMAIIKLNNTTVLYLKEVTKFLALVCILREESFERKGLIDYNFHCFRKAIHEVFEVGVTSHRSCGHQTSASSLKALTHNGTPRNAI
Chain of RRAGC C377 (Q9HB90) (Q7L523 whole entry partner, the tested form may be a part): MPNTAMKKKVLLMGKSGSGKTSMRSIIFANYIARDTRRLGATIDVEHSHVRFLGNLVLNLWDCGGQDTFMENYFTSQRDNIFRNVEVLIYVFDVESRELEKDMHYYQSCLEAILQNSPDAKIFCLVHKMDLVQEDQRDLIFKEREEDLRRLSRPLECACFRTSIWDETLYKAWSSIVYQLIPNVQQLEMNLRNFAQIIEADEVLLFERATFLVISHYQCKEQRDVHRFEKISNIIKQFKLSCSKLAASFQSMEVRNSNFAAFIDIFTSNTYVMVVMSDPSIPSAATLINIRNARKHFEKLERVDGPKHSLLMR
Chain of WAPAL C160 (Q7Z5K2) (Q7Z5K2 whole entry, the tested form may be a part): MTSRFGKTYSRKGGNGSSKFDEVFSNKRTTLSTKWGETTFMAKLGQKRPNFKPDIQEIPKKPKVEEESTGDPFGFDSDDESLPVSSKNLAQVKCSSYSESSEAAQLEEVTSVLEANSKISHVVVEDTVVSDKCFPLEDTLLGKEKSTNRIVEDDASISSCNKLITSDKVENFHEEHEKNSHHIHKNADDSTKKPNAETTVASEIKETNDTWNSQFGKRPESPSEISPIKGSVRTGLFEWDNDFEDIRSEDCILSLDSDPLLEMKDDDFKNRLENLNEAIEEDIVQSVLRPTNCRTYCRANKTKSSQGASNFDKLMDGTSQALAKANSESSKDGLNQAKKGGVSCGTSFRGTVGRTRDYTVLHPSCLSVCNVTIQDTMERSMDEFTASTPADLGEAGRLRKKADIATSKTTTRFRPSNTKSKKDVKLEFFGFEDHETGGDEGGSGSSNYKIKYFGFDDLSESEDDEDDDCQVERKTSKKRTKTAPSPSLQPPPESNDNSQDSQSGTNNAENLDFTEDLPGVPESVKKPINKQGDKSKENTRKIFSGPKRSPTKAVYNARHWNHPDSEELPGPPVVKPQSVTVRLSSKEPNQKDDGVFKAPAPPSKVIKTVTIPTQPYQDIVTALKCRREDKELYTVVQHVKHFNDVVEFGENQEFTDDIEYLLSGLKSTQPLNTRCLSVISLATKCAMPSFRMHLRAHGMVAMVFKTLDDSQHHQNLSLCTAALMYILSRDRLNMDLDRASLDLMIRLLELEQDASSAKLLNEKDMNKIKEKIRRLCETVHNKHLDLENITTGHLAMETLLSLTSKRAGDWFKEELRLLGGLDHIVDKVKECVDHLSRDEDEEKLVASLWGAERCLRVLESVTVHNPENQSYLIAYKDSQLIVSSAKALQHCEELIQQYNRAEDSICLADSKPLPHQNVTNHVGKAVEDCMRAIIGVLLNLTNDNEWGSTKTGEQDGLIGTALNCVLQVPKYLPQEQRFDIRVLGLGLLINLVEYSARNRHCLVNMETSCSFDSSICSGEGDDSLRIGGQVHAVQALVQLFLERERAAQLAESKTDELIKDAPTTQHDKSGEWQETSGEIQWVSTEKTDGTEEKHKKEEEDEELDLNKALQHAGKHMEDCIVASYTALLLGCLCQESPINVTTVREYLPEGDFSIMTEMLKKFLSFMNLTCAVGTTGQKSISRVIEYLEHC

| Compound | isoTOP-ABPP reactivity profile (ratio) 2_200 μM_in-situ_231 (WAPAL C160 (Q7Z5K2)) | isoTOP-ABPP reactivity profile (ratio) 2_200 μM_in-situ_231 (KDM4B C694 (O94953)) | isoTOP-ABPP reactivity profile (ratio) 2_200 μM_in-situ_231 (RRAGC C377 (Q9HB90)) | isoTOP-ABPP reactivity profile ratio, O00541_C272 (O00541_C272) |
| --- | --- | --- | --- | --- |
| COc1ccc2c(c1)CCCN2C(=O)CCl [compound 2] | 20.0 | 20.0 | 3.3 | – |
| N#CC(=Cc1ccc(-c2ccccc2Cl)o1)C(N)=O [compound 42] | – | – | – | 0.9 |
